Patent publication EP4745137A1 (Gluetacs Therapeutics (Shanghai) Co., Ltd., priority 2023, dated 2025)

Tests used:
[1] = target: T1, WEE1 (Homo sapiens, UniProt P30291+Q96SW2); test: Western-blot assay of substrate protein degradation in hPBMCs, WEE1; format: cell-based; conditions: 24 hours of compound treatment, compounds tested at 50 nM and 500 nM (concentration of the table not stated)
T1 construct: endogenous in cells; host or cells: hPBMCs (Milecell Biotechnologies)

[2] = target: T2, IKZF1 (Homo sapiens, UniProt Q13422+Q96SW2); test: Western-blot assay of substrate protein degradation in hPBMCs, IKZF1; format: cell-based; conditions: 24 hours of compound treatment, compounds tested at 50 nM and 500 nM (concentration of the table not stated)
T2 construct: endogenous in cells; host or cells: hPBMCs (Milecell Biotechnologies)
T2 sequence (Q13422 whole entry): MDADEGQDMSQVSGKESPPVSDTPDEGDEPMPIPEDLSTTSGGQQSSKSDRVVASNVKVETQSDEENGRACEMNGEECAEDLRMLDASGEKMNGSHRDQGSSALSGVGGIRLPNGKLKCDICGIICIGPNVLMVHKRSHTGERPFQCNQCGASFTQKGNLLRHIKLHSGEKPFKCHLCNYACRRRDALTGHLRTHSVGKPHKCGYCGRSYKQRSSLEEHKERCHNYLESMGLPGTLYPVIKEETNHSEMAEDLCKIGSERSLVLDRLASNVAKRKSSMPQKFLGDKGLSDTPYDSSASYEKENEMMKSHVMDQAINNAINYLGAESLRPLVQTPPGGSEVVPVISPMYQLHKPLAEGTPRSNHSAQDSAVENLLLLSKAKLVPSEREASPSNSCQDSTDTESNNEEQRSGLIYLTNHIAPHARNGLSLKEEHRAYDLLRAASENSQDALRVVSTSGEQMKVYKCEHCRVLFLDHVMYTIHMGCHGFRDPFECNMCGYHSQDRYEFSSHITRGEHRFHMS
T2 sequence (Q96SW2 whole entry): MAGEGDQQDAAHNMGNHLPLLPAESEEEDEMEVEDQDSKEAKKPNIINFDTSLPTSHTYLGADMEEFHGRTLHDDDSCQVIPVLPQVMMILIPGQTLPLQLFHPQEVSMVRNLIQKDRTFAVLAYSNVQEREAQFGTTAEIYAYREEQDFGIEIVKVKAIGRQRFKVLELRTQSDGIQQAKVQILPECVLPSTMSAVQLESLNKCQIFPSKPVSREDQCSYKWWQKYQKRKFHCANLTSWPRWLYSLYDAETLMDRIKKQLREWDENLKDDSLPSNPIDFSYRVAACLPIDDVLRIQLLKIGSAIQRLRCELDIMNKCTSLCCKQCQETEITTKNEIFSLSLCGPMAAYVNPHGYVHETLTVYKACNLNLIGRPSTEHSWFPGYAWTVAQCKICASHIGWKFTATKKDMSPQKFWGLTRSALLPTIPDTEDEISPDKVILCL
T2 sequence (Q16531 whole entry partner): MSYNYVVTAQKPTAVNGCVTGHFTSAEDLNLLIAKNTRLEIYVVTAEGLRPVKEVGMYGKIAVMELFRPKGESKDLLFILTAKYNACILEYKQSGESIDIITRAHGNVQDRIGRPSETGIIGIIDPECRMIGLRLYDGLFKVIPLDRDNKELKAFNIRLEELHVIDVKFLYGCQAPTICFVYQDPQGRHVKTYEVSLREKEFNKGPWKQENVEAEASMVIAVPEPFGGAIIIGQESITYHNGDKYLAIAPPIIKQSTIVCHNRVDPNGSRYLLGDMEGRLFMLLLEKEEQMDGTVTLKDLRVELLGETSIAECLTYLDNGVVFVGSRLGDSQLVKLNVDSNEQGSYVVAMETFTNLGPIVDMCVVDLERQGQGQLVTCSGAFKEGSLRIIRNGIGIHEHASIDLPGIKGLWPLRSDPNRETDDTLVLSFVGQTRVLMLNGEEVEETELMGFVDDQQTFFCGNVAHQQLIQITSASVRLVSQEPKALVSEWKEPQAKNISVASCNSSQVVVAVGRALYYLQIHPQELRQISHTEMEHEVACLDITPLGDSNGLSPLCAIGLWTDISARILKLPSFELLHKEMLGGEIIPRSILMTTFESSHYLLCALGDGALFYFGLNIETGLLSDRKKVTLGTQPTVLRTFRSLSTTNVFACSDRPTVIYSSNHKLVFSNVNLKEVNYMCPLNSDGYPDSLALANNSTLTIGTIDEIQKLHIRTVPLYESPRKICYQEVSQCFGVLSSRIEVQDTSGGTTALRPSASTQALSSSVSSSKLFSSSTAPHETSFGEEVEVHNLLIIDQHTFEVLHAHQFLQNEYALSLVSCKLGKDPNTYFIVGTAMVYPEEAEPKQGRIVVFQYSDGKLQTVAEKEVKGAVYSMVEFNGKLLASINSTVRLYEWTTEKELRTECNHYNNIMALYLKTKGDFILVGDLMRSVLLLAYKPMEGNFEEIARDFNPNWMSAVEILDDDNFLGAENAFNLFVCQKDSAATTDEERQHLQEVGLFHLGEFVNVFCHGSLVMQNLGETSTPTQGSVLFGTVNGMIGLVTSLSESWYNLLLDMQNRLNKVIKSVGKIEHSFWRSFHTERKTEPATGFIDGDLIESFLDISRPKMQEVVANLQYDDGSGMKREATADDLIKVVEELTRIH

[3] = target: T3, IKZF2 (Homo sapiens, UniProt Q96SW2+Q9UKS7); test: Western-blot assay of substrate protein degradation in hPBMCs, IKZF2; format: cell-based; conditions: 24 hours of compound treatment, compounds tested at 50 nM and 500 nM (concentration of the table not stated)
T3 construct: endogenous in cells; host or cells: hPBMCs (Milecell Biotechnologies)
T3 sequence (Q9UKS7 whole entry): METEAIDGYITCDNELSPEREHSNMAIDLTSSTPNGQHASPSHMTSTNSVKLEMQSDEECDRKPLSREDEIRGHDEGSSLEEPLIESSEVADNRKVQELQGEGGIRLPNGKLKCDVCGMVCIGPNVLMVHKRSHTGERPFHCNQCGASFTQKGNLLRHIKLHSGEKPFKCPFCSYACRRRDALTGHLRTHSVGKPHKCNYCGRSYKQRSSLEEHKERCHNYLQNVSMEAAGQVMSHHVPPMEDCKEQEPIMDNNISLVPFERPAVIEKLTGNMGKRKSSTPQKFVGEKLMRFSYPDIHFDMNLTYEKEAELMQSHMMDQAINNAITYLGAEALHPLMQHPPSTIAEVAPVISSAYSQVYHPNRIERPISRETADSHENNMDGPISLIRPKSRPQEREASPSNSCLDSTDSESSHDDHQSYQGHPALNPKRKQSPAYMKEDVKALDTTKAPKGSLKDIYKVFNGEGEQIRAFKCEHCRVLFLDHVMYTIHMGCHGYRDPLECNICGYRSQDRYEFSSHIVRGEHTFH
T3 sequence (Q96SW2 whole entry): as the sequence (Q96SW2 whole entry) above
T3 sequence (Q16531 whole entry partner): as the sequence (Q16531 whole entry partner) above

[4] = target: T4, IKZF3 (Homo sapiens, UniProt Q96SW2+Q9UKT9); test: Western-blot assay of substrate protein degradation in hPBMCs, IKZF3; format: cell-based; conditions: 24 hours of compound treatment, compounds tested at 50 nM and 500 nM (concentration of the table not stated)
T4 construct: endogenous in cells; host or cells: hPBMCs (Milecell Biotechnologies)
T4 sequence (Q9UKT9 whole entry): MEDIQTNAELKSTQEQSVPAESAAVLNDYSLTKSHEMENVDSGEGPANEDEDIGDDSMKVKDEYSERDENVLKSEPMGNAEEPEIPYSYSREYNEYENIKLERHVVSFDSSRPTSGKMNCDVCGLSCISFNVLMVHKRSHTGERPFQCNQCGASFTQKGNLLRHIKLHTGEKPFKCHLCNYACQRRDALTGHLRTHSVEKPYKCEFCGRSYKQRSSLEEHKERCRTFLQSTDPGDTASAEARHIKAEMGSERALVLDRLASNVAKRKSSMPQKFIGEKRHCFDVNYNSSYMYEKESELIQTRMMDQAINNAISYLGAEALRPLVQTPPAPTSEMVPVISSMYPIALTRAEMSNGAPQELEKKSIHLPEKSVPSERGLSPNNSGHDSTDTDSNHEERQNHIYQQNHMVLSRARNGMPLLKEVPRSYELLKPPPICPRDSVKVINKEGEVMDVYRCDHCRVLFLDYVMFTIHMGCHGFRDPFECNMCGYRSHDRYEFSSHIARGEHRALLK
T4 sequence (Q96SW2 whole entry): as the sequence (Q96SW2 whole entry) above
T4 sequence (Q16531 whole entry partner): as the sequence (Q16531 whole entry partner) above

[5] = target: T5, CK1α (Homo sapiens, UniProt P48729+Q96SW2); test: Western-blot assay of substrate protein degradation in hPBMCs, CK1α; format: cell-based; conditions: 24 hours of compound treatment, compounds tested at 50 nM and 500 nM (concentration of the table not stated)
T5 construct: endogenous in cells; host or cells: hPBMCs (Milecell Biotechnologies)
T5 sequence (P48729 whole entry): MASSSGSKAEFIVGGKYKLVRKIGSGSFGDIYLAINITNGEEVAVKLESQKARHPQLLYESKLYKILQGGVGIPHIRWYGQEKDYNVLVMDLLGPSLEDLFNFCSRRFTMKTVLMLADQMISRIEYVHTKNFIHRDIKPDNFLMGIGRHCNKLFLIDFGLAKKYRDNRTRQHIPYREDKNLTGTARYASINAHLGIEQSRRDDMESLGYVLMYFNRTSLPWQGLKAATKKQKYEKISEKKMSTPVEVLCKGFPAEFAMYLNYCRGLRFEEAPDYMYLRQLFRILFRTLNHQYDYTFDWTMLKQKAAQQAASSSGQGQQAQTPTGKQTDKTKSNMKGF
T5 sequence (Q96SW2 whole entry): as the sequence (Q96SW2 whole entry) above
T5 sequence (Q16531 whole entry partner): as the sequence (Q16531 whole entry partner) above

[6] = target: T6, GSPT1 (Homo sapiens, UniProt P15170+Q96SW2); test: Western-blot assay of substrate protein degradation in hPBMCs, GSPT1; format: cell-based; conditions: 24 hours of compound treatment, compounds tested at 50 nM and 500 nM (concentration of the table not stated)
T6 construct: endogenous in cells; host or cells: hPBMCs (Milecell Biotechnologies)
T6 sequence (P15170 whole entry): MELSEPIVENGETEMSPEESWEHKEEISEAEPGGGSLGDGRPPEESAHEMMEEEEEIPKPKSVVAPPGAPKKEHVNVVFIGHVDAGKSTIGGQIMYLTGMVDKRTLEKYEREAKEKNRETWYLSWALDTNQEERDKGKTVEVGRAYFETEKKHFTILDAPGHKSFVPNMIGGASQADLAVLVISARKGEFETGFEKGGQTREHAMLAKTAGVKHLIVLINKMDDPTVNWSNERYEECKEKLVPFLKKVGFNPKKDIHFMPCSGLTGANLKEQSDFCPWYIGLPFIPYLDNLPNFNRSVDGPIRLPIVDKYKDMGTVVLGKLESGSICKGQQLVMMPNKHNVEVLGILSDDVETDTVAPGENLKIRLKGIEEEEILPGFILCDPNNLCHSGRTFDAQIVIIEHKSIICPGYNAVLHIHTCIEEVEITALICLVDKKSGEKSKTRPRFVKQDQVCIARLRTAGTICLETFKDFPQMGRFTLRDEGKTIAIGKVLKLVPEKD
T6 sequence (Q96SW2 whole entry): as the sequence (Q96SW2 whole entry) above
T6 sequence (Q16531 whole entry partner): as the sequence (Q16531 whole entry partner) above

[7] = target: T7, human Cereblon WT GST-tagged protein (Homo sapiens, UniProt Q96SW2); test: CRBN-binding affinity by HTRF (CEREBLON BINDING kit); conditions: HTRF inhibitory activity, CEREBLON BINDING kit; read-out: HTRF IC50
T7 construct: purchased CISBIO 64BDCRBNPEH
T7 sequence (Q96SW2 whole entry): as the sequence (Q96SW2 whole entry) above

| IC50 [7] | Structure (SMILES) | Weel substrate protein remaining % [1] | IKZF 1 substrate protein remaining % [2] | IKZF2 substrate protein remaining % [3] | IKZF3 substrate protein remaining % [4] | CK1a substrate protein remaining % [5] | GSPT1 substrate protein remaining % [6] |
| --- | --- | --- | --- | --- | --- | --- | --- |
| 500 to 1000 nM | O=C1CCC(N2Cc3cc(CN4CCN(c5c(F)cncc5Cl)CC4)ccc3C2=O)C(=O)N1 (stereo not shown) [GT-04611, 3-(5-((4-(3-chloro-5-fluoropyridin-4-yl)piperazin-1-yl)methyl)-1-oxoisoindolin-2-yl)piperidine-2,6-dione] | A (0% ≤ substrate protein remaining % ≤ 80%) | B (80%< substrate protein remaining %≤ 100%) | B (80%< substrate protein remaining %≤ 100%) | B (80%< substrate protein remaining %≤ 100%) | B (80%< substrate protein remaining %≤ 100%) | A (0% ≤ substrate protein remaining % ≤ 80%) |
| 500 to 1000 nM | O=C1CCC(N2Cc3cc(CN4CCN(c5ccnc(Cl)c5F)CC4)ccc3C2=O)C(=O)N1 (stereo not shown) [GT-04612, 3-(5-((4-(2-chloro-3-fluoropyridin-4-yl)piperazin-1-yl)methyl)-1-oxoisoindolin-2-yl)piperidine-2,6-dione] | A (0% ≤ substrate protein remaining % ≤ 80%) | B (80%< substrate protein remaining %≤ 100%) | B (80%< substrate protein remaining %≤ 100%) | B (80%< substrate protein remaining %≤ 100%) | B (80%< substrate protein remaining %≤ 100%) | A (0% ≤ substrate protein remaining % ≤ 80%) |
| 1000 to 1500 nM | O=C1CCC(N2Cc3cc(CN4CCN(c5c(Cl)cccc5Cl)CC4)ccc3C2=O)C(=O)N1 (stereo not shown) [GT-04613, 3-(5-((4-(2,6-dichlorophenyl)piperazin-1-yl)methyl)-1-oxoisoindolin-2-yl)piperidine-2,6-dione] | A (0% ≤ substrate protein remaining % ≤ 80%) | B (80%< substrate protein remaining %≤ 100%) | B (80%< substrate protein remaining %≤ 100%) | B (80%< substrate protein remaining %≤ 100%) | B (80%< substrate protein remaining %≤ 100%) | A (0% ≤ substrate protein remaining % ≤ 80%) |
| < 500 nM | O=C1CCC(N2Cc3cc(CN4CCN(c5ccnc(Cl)c5Br)CC4)ccc3C2=O)C(=O)N1 (stereo not shown) [GT-04616, 3-(5-((4-(3-bromo-2-chloropyridin-4-yl)piperazin-1-yl)methyl)-1-oxoisoindolin-2-yl)piperidine-2,6-dione] | B (80%< substrate protein remaining %≤ 100%) | B (80%< substrate protein remaining %≤ 100%) | B (80%< substrate protein remaining %≤ 100%) | B (80%< substrate protein remaining %≤ 100%) | B (80%< substrate protein remaining %≤ 100%) | A (0% ≤ substrate protein remaining % ≤ 80%) |
| < 500 nM | O=C1CCC(N2Cc3cc(CN4CCC(=C5CCOc6cc(F)ccc65)CC4)ccc3C2=O)C(=O)N1 (stereo not shown) [GT-04649, 3-(5-((4-(7-fluorochroman-4-ylidene)piperidin-1-yl)methyl)-1-oxoisoindolin-2-yl)piperidine-2,6-dione] | B (80%< substrate protein remaining %≤ 100%) | A (0% ≤ substrate protein remaining % ≤ 80%) | A (0% ≤ substrate protein remaining % ≤ 80%) | A (0% ≤ substrate protein remaining % ≤ 80%) | B (80%< substrate protein remaining %≤ 100%) | A (0% ≤ substrate protein remaining % ≤ 80%) |
| < 500 nM | O=C1CCC(N2Cc3cc(CN4CCC(c5cccc6cnccc56)CC4)ccc3C2=O)C(=O)N1 (stereo not shown) [GT-04665, 3-(5-((4-(isoquinolin-5-yl)piperidin-1-yl)methyl)-1-oxoisoindolin-2-yl)piperidine-2,6-dione] | A (0% ≤ substrate protein remaining % ≤ 80%) | A (0% ≤ substrate protein remaining % ≤ 80%) | A (0% ≤ substrate protein remaining % ≤ 80%) | A (0% ≤ substrate protein remaining % ≤ 80%) | A (0% ≤ substrate protein remaining % ≤ 80%) | A (0% ≤ substrate protein remaining % ≤ 80%) |
| 500 to 1000 nM | O=C1CCC(N2Cc3cc(CN4CCN(c5noc6cc(F)ccc56)CC4)ccc3C2=O)C(=O)N1 (stereo not shown) [GT-04667, 3-(5-((4-(6-fluorobenzo[d]isoxazol-3-yl)piperazin-1-yl)methyl)-1-oxoisoindolin-2-yl)piperidine-2,6-dione] | A (0% ≤ substrate protein remaining % ≤ 80%) | A (0% ≤ substrate protein remaining % ≤ 80%) | A (0% ≤ substrate protein remaining % ≤ 80%) | A (0% ≤ substrate protein remaining % ≤ 80%) | B (80%< substrate protein remaining %≤ 100%) | A (0% ≤ substrate protein remaining % ≤ 80%) |
| < 500 nM | O=C1CCC(N2Cc3cc(CN4CC(N5CCc6cc(F)ccc65)C4)ccc3C2=O)C(=O)N1 (stereo not shown) [GT-04677, 3-(5-((3-(5-fluoroindolin-1-yl)azetidin-1-yl)methyl)-1-oxoisoindolin-2-yl)piperidine-2,6-dione] | A (0% ≤ substrate protein remaining % ≤ 80%) | A (0% ≤ substrate protein remaining % ≤ 80%) | A (0% ≤ substrate protein remaining % ≤ 80%) | A (0% ≤ substrate protein remaining % ≤ 80%) | B (80%< substrate protein remaining %≤ 100%) | A (0% ≤ substrate protein remaining % ≤ 80%) |
| 500 to 1000 nM | O=C1CCC(N2Cc3cc(CN4CCN(c5ncnc6sccc56)CC4)ccc3C2=O)C(=O)N1 (stereo not shown) [GT-04678, 3-(1-oxo-5-((4-(thieno[2,3-d]pyrimidin-4-yl)piperazin-1-yl)methyl)isoindolin-2-yl)piperidine-2,6-dione] | A (0% ≤ substrate protein remaining % ≤ 80%) | A (0% ≤ substrate protein remaining % ≤ 80%) | A (0% ≤ substrate protein remaining % ≤ 80%) | A (0% ≤ substrate protein remaining % ≤ 80%) | B (80%< substrate protein remaining %≤ 100%) | A (0% ≤ substrate protein remaining % ≤ 80%) |
| 500 to 1000 nM | Cc1csc2ncnc(N3CCN(Cc4ccc5c(c4)CN(C4CCC(=O)NC4=O)C5=O)CC3)c12 (stereo not shown) [GT-04679, 3-(5-((4-(5-methylthieno[2,3-d]pyrimidin-4-yl)piperazin-1-yl)methyl)-1-oxoisoindolin-2-yl)piperidine-2,6-dione] | B (80%< substrate protein remaining %≤ 100%) | B (80%< substrate protein remaining %≤ 100%) | B (80%< substrate protein remaining %≤ 100%) | B (80%< substrate protein remaining %≤ 100%) | A (0% ≤ substrate protein remaining % ≤ 80%) | A (0% ≤ substrate protein remaining % ≤ 80%) |
| 500 to 1000 nM | Cc1cc2c(N3CCN(Cc4ccc5c(c4)CN(C4CCC(=O)NC4=O)C5=O)CC3)ncnc2s1 (stereo not shown) [GT-04680, 3-(5-((4-(6-methylthieno[2,3-d]pyrimidin-4-yl)piperazin-1-yl)methyl)-1-oxoisoindolin-2-yl)piperidine-2,6-dione] | B (80%< substrate protein remaining %≤ 100%) | B (80%< substrate protein remaining %≤ 100%) | B (80%< substrate protein remaining %≤ 100%) | B (80%< substrate protein remaining %≤ 100%) | A (0% ≤ substrate protein remaining % ≤ 80%) | A (0% ≤ substrate protein remaining % ≤ 80%) |
| 500 to 1000 nM | O=C1CCC(N2Cc3cc(CN4CCN(c5ncnc6ccsc56)CC4)ccc3C2=O)C(=O)N1 (stereo not shown) [GT-04681, 3-(1-oxo-5-((4-(thieno[3,2-d]pyrimidin-4-yl)piperazin-1-yl)methyl)isoindolin-2-yl)piperidine-2,6-dione] | B (80%< substrate protein remaining %≤ 100%) | B (80%< substrate protein remaining %≤ 100%) | B (80%< substrate protein remaining %≤ 100%) | B (80%< substrate protein remaining %≤ 100%) | A (0% ≤ substrate protein remaining % ≤ 80%) | A (0% ≤ substrate protein remaining % ≤ 80%) |

| Structure (SMILES) | IC50 [7] | Weel substrate protein remaining % [1] | IKZF 1 substrate protein remaining % [2] | IKZF2 substrate protein remaining % [3] | IKZF3 substrate protein remaining % [4] | CK1a substrate protein remaining % [5] | GSPT1 substrate protein remaining % [6] |
| --- | --- | --- | --- | --- | --- | --- | --- |
| O=C1CCC(N2Cc3cc(CN4CCC(c5ccnc6cc(F)ccc56)CC4)ccc3C2=O)C(=O)N1 (stereo not shown) [GT-04648, 3-(5-((4-(7-fluoroquinolin-4-yl)piperidin-1-yl)methyl)-1-oxoisoindolin-2-yl)piperidine-2,6-dione] | 500 to 1000 nM | B (80%< substrate protein remaining %≤ 100%) | A (0% ≤ substrate protein remaining % ≤ 80%) | A (0% ≤ substrate protein remaining % ≤ 80%) | A (0% ≤ substrate protein remaining % ≤ 80%) | B (80%< substrate protein remaining %≤ 100%) | A (0% ≤ substrate protein remaining % ≤ 80%) |
